According to US20140051575A1 (priority 2011, published 2014):

Columns and labels:
[1] = Measurement of logP values by HPLC on reversed phase columns (EEC directive 79/831 Annex V.A8); format: physicochemical; conditions: pH 2.7, 0.1% formic acid in water / acetonitrile gradient, calibration with alkan-2-ones
Method: Measurement of logP values was performed according EEC directive 79/831 Annex V.A8 by HPLC (High Performance Liquid Chromatography) on reversed phase columns with the following methods:
Measurement of LC-MS was done at pH 2.7 with 0.1% formic acid in water and with acetonitrile (contains 0.1% formic acid) as eluent with a linear gradient from 10% acetonitrile to 95% acetonitrile.
Calibration was done with not branched alkan2-ones (with 3 to 16 carbon atoms) with known logP-values (measurement of logP values using retention times with linear interpolation between successive alkanones). lambda-maX-values were determined using UV-spectra from 200 nm to 400 nm and the peak values of the chromatographic signals.

[2] = tested on: Plasmopara viticola; test: Plasmopara test (grapevines)/preventive; format: in vivo; conditions: preventive spray, 10 ppm of active ingredient, evaluated 6 days after inoculation, 0% = untreated control, 100% = no disease
Method: To produce a suitable preparation of active compound, 1 part by weight of active compound is mixed with the stated amounts of solvent and emulsifier, and the concentrate is diluted with water to the desired concentration.
To test for preventive activity, young plants are sprayed with the preparation of active compound at the stated rate of application. After the spray coating has dried on, the plants are inoculated with an aqueous spore suspension of Plasmopara viticola and then remain for 1 day in an incubation cabinet at approximately 20° C. and a relative atmospheric humidity of 100%. The plant is subsequently placed for 4 days in a greenhouse at approximately 21° C. and a relative atmospheric humidity of approximately 90%. The plants are then misted and placed for 1 day in an incubation cabinet.
The test is evaluated 6 days after the inoculation. 0% means an efficacy which corresponds to that of the untreated control, while an efficacy of 100% means that no disease is observed.

[3] = tested on: Pythium ultimum; test: Pythium test (cotton)/seed treatment; format: in vivo; conditions: 50 g/dt seed of active ingredient, greenhouse 7 days, 100% = all seedlings have emerged
Method: The test is performed under greenhouse conditions.
Cotton seeds, treated with the active compound or compound combinations, solved in N-methyl-2-pyrrolidon and diluted with water to the desired dosages, were sown in 6*6 cm pots containing 4 cm of a 1:1 mix of steamed field soil and sand.
Perlite was incubated with mycelium fragments of Pythium ultimum. 1 ml of infected perlite was scattered between the treated cotton seeds. Seeds were then covered by light expanded clay aggregate. Pots were incubated in the greenhouse 7 days at 20° C. and 80% relative humidity.
Assessment consisted of counting of emerged seedlings. 0% means an efficacy which corresponds to that of the control, while an efficacy of 100% means that all seedlings have emerged.

[4] = tested on: Phytophthora infestans; format: in vivo; conditions: tomato plants, preventive spray, 500 ppm of active ingredient, evaluated 7 days after inoculation; 0% = untreated control, 100% = no disease

Row | Structure (SMILES) | Log P [1] | Eff. % [2] | Eff. % [3] | Eff. % [4]
1 | CC(OCC1CC1)C(=O)Nc1cccc(CON=C(c2ccccc2)c2nnnn2C)n1 (stereo not drawn) [Example 2] | 3.55 | 95% | 100% | 
2 | CC(OCC1CC1)C(=O)Nc1nc(CON=C(c2ccccc2)c2nnnn2C)cs1 (stereo not drawn) [Example 14] | 3.29 | 97% | 100% | 100%
3 | Cn1nnnc1C(=NOCc1csc(NC(=O)COCC2CCCCC2)n1)c1ccccc1 [Example 17] | 4.29 | 94% |  | 100%
4 | CC(OCC1CCCC1)C(=O)Nc1nc(CON=C(c2ccccc2)c2nnnn2C)cs1 (stereo not drawn) [Example 19] | 4.25 | 91% |  | 100%
5 | CC(OCC1CCC1)C(=O)Nc1nc(CON=C(c2ccccc2)c2nnnn2C)cs1 (stereo not drawn) [Example 22] | 3.83 | 88% |  | 100%
6 | Cc1nnnn1C(=NOCc1cccc(NC(=O)C(C)OCC2CC2)n1)c1ccccc1 (stereo not drawn) [Example 24] | 3.63 | 81% |  | 100%
7 | Cc1nnnn1C(=NOCc1cccc(NC(=O)COCC2CCC2)n1)c1ccccc1 [Example 25] | 3.92 | 80% |  | 97%
8 | Cc1nnnn1C(=NOCc1csc(NC(=O)C(C)OCC2CC2)n1)c1ccccc1 (stereo not drawn) [Example 34] | 3.35 | 94% | 92% | 100%
9 | Cc1nnnn1C(=NOCc1csc(NC(=O)COCC2CCC2)n1)c1ccccc1 [Example 35] | 3.59 | 91% |  | 100%
10 | Cc1nnnn1C(=NOCc1csc(NC(=O)C(C)OCC2CCC2)n1)c1ccccc1 (stereo not drawn) [Example 42] | 3.9 | 93% |  | 100%
11 | CC(C)CCOCC(=O)Nc1nc(CON=C(c2ccccc2)c2nnnn2C)cs1 [Example 45] | 3.8 | 91% |  | 100%
12 | Cn1nnnc1C(=NOCc1cccc(NC(=O)COCc2ccccc2)n1)c1ccccc1 [Example 48] | 3.63 | 96% |  | 95%
13 | Cn1nnnc1C(=NOCc1csc(NC(=O)COCc2ccccc2)n1)c1ccccc1 [Example 50] | 3.37 | 100% | 93% | 100%
14 | CC(OCC1CCCO1)C(=O)Nc1nc(CON=C(c2ccccc2)c2nnnn2C)cs1 (stereo not drawn) [Example 60] | 3.15 | 85% |  | 100%
15 | CC(SCc1ccccc1)C(=O)Nc1nc(CON=C(c2ccccc2)c2nnnn2C)cs1 (stereo not drawn) [Example 71] | 3.8 | 82% |  | 100%
16 | CC(SC1CCCCC1)C(=O)Nc1nc(CON=C(c2ccccc2)c2nnnn2C)cs1 (stereo not drawn) [Example 74] | 4.12 | 82% |  | 100%
17 | Cc1ccccc1CSCC(=O)Nc1nc(CON=C(c2ccccc2)n2nnnc2C)cs1 [Example 88] | 4.06 | 84% |  | 100%
18 | COC(C)CC(CC(=O)Nc1cccc(CON=C(c2ccccc2)c2nnnn2C)n1)OC (stereo not drawn) [Example 96] | 2.9 | 78% |  | 100%
19 | Cn1nnnc1C(=NOCc1cccc(NC(=O)OCCCOC2CCCC2)n1)c1ccccc1 [Example 98] | 4.14 | 81% |  | 100%
